Where two headings read alike, the source gives them in different places.
Key:
recombinant human DHODH = target: T1, recombinant human DHODH (Homo sapiens, UniProt Q02127); test: DHODH enzyme assay (DCIP quenching); assay type: biochemical; details: pH 8.0, DCIP absorbance 600 nm, 50 minutes; read-out: DHODH enzyme inhibition IC50
T1 construct: DHODH, 31-395aa, Human, His tag, E. coli, ATGP1615; His tag; purchased ATGen ATGP1615; host or cells: E. coli
Protocol: For DHODH enzyme assay, “Benjamin Bader, Wolfgang Knecht, Markus Fries, and Monika Löffler. Expression, Purification, and Characterization of Histidine-Tagged Rat and Human Flavoenzyme Dihydroorotate Dehydrogenase. Protein Expression and Purification, 1998, 13, 414-422” was referred to.
DHODH activity was evaluated using an enzyme assay system that couples with an assay in a blue-coloring dye 2,6-dichlorophenol indophenol (DCIP, MP BIOMEDICALS, MP150118) quenching assay. Purified recombinant human DHODH (DHODH, 31-395aa, Human, His tag, E. coli, ATGP1615) was purchased from ATGen. […] Enzyme activity was assessed by measuring the decrease in DCIP absorbance (600 nm) for 50 minutes using an Envision plate-reading spectrophotometer (PerkinElmer Co., Ltd.). […]
Enzyme reaction inhibition rate (%)=(Amount of luminescence from wells supplemented with test compound)/(Amount of luminescence from wells supplemented with DMSO)×100

E16 cells = test: Quantitative determination of metabolites by LC-MS/MS in E16 cells; assay type: cell-based, human; set-up: dose or concentration left out as unconfirmed; details: 24 hours
Protocol: Compound 8 was added to GICs (E6, E16) at […] and treated for 24 hours. Cells were washed with a 5% mannitol solution, 70% ice-cold methanol was added, and metabolites were extracted. […] In addition, the amount of orotic acid was decreased in E16 cells.

[1] = system: GIC strains (E6 cell, E16 cell); test: Immunostaining of differentiated and undifferentiated markers in GIC strains; assay type: cell-based, human; details: Compound 8 10 μM, E6 and E16 cells, FIG. 1
[2] = system: Glioma-initiating cell E6R; test: Cell growth test (MTT) on GICR strain E6R; assay type: cell-based; details: Homo sapiens, 72 h
Protocol: GICR strain: Cell growth test was performed using E6R (Stem Cells. 2016 August; 34(8):2016-25.).
Cell culture solutions were obtained by mixing a medium prepared by adding various compounds, bFGF (Peprotech, 100-18B) and EGF (Peprotech, 100-15) to DMEM/Ham's F-12 medium (SIGMA, D8062) and a medium prepared by adding FCS (Hyclone, SH30910.03) to DMEM medium (Nacalai tesque, 08458-45) to a concentration of 10% for use.
Each compound adjusted to a predetermined concentration was dispensed into a 96-well plate (Falcon, 353072) at 80 μL/well, and E6 cells and E6R cells were seeded on the 96-well plate at 1000 cells/80 μL/well. After 3 days, 10 μL of an MTT reagent (DOJINDO, 341-01823) was added, the cells were incubated at 37° C. for 3 hours, the culture solution was removed, and 100 μL of DMSO was added. The absorbance at 570 nm was measured using Bio-Rad iMark (Bio-Rad, 168-1130JA). The growth inhibition rate at each test compound concentration was calculated by the following formula using the absorbance as an index of the viable cell count.
The growth inhibition rate at each compound concentration was determined, and the 50% growth inhibition concentration GI50 (μmol/L)] was calculated using XLfit. Growth inhibition rate (%)=(Amount of luminescence from wells supplemented with test compound)/(Amount of luminescence from wells supplemented with DMSO)×100
GIC and GICR strain: Cell growth test was performed using E6, E6R, E16, and E16R (Stem Cells. 2016 August; 34(8): 2016-25.).

T1 sequence (Q02127 31-395): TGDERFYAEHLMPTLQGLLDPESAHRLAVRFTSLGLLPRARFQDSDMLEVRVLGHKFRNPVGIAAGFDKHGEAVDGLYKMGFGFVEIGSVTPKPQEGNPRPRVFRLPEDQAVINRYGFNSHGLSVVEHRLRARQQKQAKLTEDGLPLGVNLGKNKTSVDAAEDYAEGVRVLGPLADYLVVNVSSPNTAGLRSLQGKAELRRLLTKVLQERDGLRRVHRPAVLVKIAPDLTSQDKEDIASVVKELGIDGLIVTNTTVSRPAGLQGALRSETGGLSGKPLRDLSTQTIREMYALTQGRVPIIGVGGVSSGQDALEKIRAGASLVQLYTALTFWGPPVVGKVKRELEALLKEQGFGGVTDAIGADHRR

- IC50 (recombinant human DHODH): 8.96 nM
- GI50 ([2]; MTT after 3 days, read-out: ER6 GI50): 11.8 nM
- GI50 ([2]; class of ER6 GI50, MTT after 3 days, read-out: Evaluation): < 1000 nM
SMILES: O=C(O)c1cc(C2CC2)cnc1Nc1ccc2c(ccn2-c2ccccc2)c1 [Compound 8, 5-cyclopropyl-2-((1-phenyl-1H-indole-5-yl)amino)nicotinic acid]
- amount of orotic acid in E16 cells (E16 cells): decreased
- increase of the amount of DHO in E16 cells (E16 cells; compared to control DMSO-treated group): 125 fold
- expression of differentiation markers (βIII tubulin, GFAP, GC) [1]: increased
- positive rate of neural stem cell markers SOX2 and NESTIN [1]: remarkable decrease

— US20210113540A1, “TREATMENT AGENT AND PHARMACEUTICAL COMPOSITION FOR GLIOMA” (NATIONAL UNIVERSITY CORPORATION HOKKAIDO UNIVERSITY, priority 2018, published 2021)
